As a reminder, the IC50 is the concentration needed to halve the response being measured.

SMILES strings stand for the structures.

Data on nine compounds can be found in patent publication US4797417A, “Furanone derivatives, process for preparation thereof and use thereof” (Fujisawa Pharmaceutical Co., Ltd., priority 1982, dated 1989).

For the first assay, the target named is T1, aldose reductase (Oryctolagus cuniculus, UniProt P15122).
T1 construct: The lenses were homogenized with 3 volumes of distilled water at 4° C; from tissue; host or cells: rabbit lens (homogenate, 10,000 G supernatant, dialysed)
Kind of assay: Aldose reductase-inhibiting activity, enzymatic assay (decrease in NADPH, D,L-glyceraldehyde substrate, rabbit lens enzyme solution). The class given is biochemical. Particulars: IC50 (M), concentration at which the aldose reductase activity is inhibited by 50%, pH 6.2, 35° C., 2 minutes. The method, then: (1) Enzymatic assay method:
The above reactants were mixed and reacted at 35° C. for 2 minutes and the decrease in amount of NADPH was measured with an Automatic Reaction Rate Analyzer Model LKB-8600 of LKB Producter A. B. The enzyme activity at achange in absorbance of 0.001 per minute was taken as unity.
(2) Method for preparing an enzyme solution
Rabbit eyes were enucleated and the lenses collected. The lenses were homogenized with 3 volumes of distilled water at 4° C. (All the subsequent procedures were also performed at 4° C.) and centrifuged at 10,000 G for 60 minutes. The supernatant was dialyzed against 2 liters of 0.05 M of saline solution and the interal fluid was used as the enzyme solution.
Take `COC1=C(c2cccc(C(F)(F)F)c2)C(CCC(=O)O)OC1=O` (stereo not drawn) [Example 20, 3-[4-Methoxy-5-oxo-3-(3-trifluoromethylphenyl)2,5-dihydro-2-furyl]propionicacid]: inhibition was half-maximal at 4.8e-07 M (IC50).

The same assay, now with this note: concentration at which the aldose reductase activity is inhibited by 50%, pH 6.2, 35° C., 2 minutes, read-out: IC50.
With `O=C(O)CCC1OC(=O)C(O)=C1c1ccccc1` (single isomer, unassigned) [Example 30-2, (d)-3-(4-hydroxy5-oxo-3-phenyl-2,5-dihydro-2-furyl)propionic acid], the IC50 turned out to be 2.5e-06 M. As to `O=C(O)CCC1OC(=O)C(O)=C1c1ccccc1` (single isomer, unassigned) [Example 30-3, (l)-3-(4-hydroxy-5-oxo-3-phenyl-2,5-dihydro-2-furyl)propionic acid], the IC50 was determined as 5.4e-07 M.

Take `CCOC(=O)CCC1OC(=O)C(OC)=C1c1ccccc1` (stereo not drawn) [Example 4, ethyl 3-(4-methoxy-5-oxo-3-phenyl-2,5-dihydro-2-furyl)propionate]: the IC50 stood at 2.2e-07 M. Still for that read-out and setting: the value for `CCCCCOC1=C(c2ccccc2)C(CCC(=O)O)OC1=O` (stereo not drawn) [Example 17, 3-(5-oxo-4-pentyloxy-3-phenyl2,5-dihydro-2-furyl)propionicacid] was 5e-08 M. As to `COC1=C(c2ccccc2)C(CCC(=O)O)OC1=O` (stereo not drawn) [Example 18, 3-(4-Methoxy-5-oxo-3-phenyl-2,5-dihydro-2-furyl)propionic acid], the IC50 stood at 2.2e-07 M. For the compound `COC1=C(c2ccc(Cl)cc2)C(CCC(=O)O)OC1=O` (stereo not drawn) [Example 19, 3-[3-(4-Chlorophenyl)-4-methoxy-5-oxo-2,5-dihydro-2-furyl]propionic acid], the IC50 came to 1.5e-07 M.

Take `CCOC1=C(c2ccccc2)C(CCC(=O)O)OC1=O` (stereo not drawn) [Example 22, 3-(4-ethoxy-5-oxo-3-phenyl2,5-dihydro-2-furyl)propionic acid]: the concentration for half-maximal inhibition (IC50) came to 2e-07 M. On to `O=C(O)CCC1OC(=O)C=C1c1ccccc1` (stereo not drawn) [Example 29-8, 3-(2,5-dihydro5-oxo-3-phenyl-2-furyl)propionic acid], for which the IC50 is 5.4e-07 M.
